From patent US4195101A, “2',6'-Dihydroxy-9-(2,5-dihydroxyphenyl)octylphenone and its use as an anti-oxidant” (The Lion Dentifrice Co. Ltd., priority 1977, dated 1980)

Tests used:
[1] = Test I: peroxide value of refined lard by the active oxygen method (AOM); conditions: 0.02% by weight in lard, 97.5° C.
Method: (§1) The above-obtained compound was tested for its anti-oxidative effects in terms of peroxide value by the active oxygen method (AOM) and also in terms of oxygen absorption. […] Each of the tests I and II are described below together with the results thereof.
Varied amounts of the compound were admixed with and uniformly dissolved in portions of refined lard each weighing 20 g to prepare test samples. Each test sample was kept in an oil bath of thermostat at 97.5°±0.5° C., while air was forcedly blown into the lard at a rate of […].
The thus treated samples of the lard were analyzed for the peroxide value (POV for brevity) periodically or at certain intervals, in accordance with the modified Lea's method as described in "Yukagaku" (Journal of Japan Oil Chemist Society), vol. 19(15), p. 340, 1970.
In comparison, similar experiments were undertaken for the samples of the same lard with addition of BHA instead of the compound of the present invention or without addition of any anti-oxidant.

[2] = Test II: oxygen absorption in corn salad oil, Warburg's manometer; conditions: 0.02% by weight in corn salad oil, 60° C.
Method: as §1
The compound of the present invention was determined for the rate of oxygen absorption in a corn salad oil to which 0.02% by weight of the compound had been added. For the purpose, 2 grams of the corn salad oil sample was taken in the receptacle of Warburg's manometer with thermostat at 60°±0.1° C., which was shaken with 110 vibrations per minute in a vibration amplitude of 60 mm. The rate of oxygen absorption was determined by reading the manometer according to the procedure set forth in "Jikken Kagaku Koza" (Lectures in Experimental Chemistry), vol. 24, p. 85, 1958, Maruzen Publishing, Japan. In this testing, the receptacle was totally wrapped with an aluminum foil to prevent the photooxidation of the oil, and mercury was used as the manometer fluid in place of Brodie's solution in order to minimize any possible influence caused by fluctuations in the atmospheric pressure.
Further, in comparison, a similar test was conducted using the same corn salad oil with addition of 0.02% by weight of BHA or without addition of any anti-oxidant.

mouse = conditions: comparison value for BHA; cited from earlier work

Q: With `COc1ccc(O)c(C(C)(C)C)c1` [BHA, butylhydroxyanisole, reference compound] as the compound, how does the Peroxide value ([1]; 8 hours) read?
A: The Peroxide value was 2.8 meq./kg.

Q: What about the Peroxide value ([1]; 16 hours) of the same compound?
A: Its Peroxide value is 5.1 meq./kg.

Q: What about the Peroxide value ([1]; 24 hours) of the same compound?
A: Its Peroxide value is 7.9 meq./kg.

Q: What about the Peroxide value ([1]; 32 hours) of the same compound?
A: The Peroxide value was 13.8 meq./kg.

Q: And the Peroxide value ([1]; 40 hours)?
A: Its Peroxide value is 28.9 meq./kg.

Q: What about the Peroxide value ([1]; 48 hours) of the same compound?
A: Its Peroxide value is 33.1 meq./kg.

Q: What about the Peroxide value ([1]; 56 hours) of the same compound?
A: Its Peroxide value is 43.1 meq./kg.

Q: What about the Peroxide value ([1]; 64 hours) of the same compound?
A: The Peroxide value was 97.3 meq./kg.

Q: And the Peroxide value ([1]; 72 hours)?
A: Its Peroxide value is 296.7 meq./kg.

Q: What about the Oxygen absorption ([2]; 85 hours) of the same compound?
A: The Oxygen absorption was 57.6 μ1/g.

Q: What about the Oxygen absorption ([2]; 140 hours) of the same compound?
A: Its Oxygen absorption is 116.2 μ1/g.

Q: And the Oxygen absorption ([2]; 166 hours)?
A: Its Oxygen absorption is 174.8 μ1/g.

Q: And the Oxygen absorption ([2]; 199 hours)?
A: Its Oxygen absorption is 219.0 μ1/g.

Q: And the Oxygen absorption ([2]; 263 hours)?
A: Its Oxygen absorption is 478.9 μ1/g.

Q: And the Oxygen absorption ([2]; 288 hours)?
A: Its Oxygen absorption is 697.8 μ1/g.

Q: And the Oxygen absorption ([2]; 320 hours)?
A: Its Oxygen absorption is 922.9 μ1/g.

Q: And the Oxygen absorption ([2]; 343 hours)?
A: The Oxygen absorption was 1124.2 μ1/g.

Q: What about the LD50 value (mouse) of the same compound?
A: Its LD50 value is 1,100 mg/kg.
